# Reference: patent US8999691B2 (priority 2010, dated 2015)
# How the values were obtained:
# [1] = biological target: Botryotinia fuckeliana glucose dehydrogenase (Bfu-GDH, FAD-GDH), wild type, SEQ ID NO:2 (Botrytis cinerea, UniProt A0A384K3P1); experiment: Michaelis-Menten saturation kinetics with glucose (DCIP/PMS dehydrogenase assay); type: biochemical
# Excerpt: (§1) Transformants BL21(DE3) for expressing each of the modified enzymes were pre-cultured.
# [2] = biological target: Botryotinia fuckeliana glucose dehydrogenase (Bfu-GDH, SEQ ID NO:2) variant G53A (Botrytis cinerea, UniProt A0A384K3P1, G69A); conditions: glucose 1-40 mM; pH 6.5; partially purified enzyme
# Procedure: (§2) Site-specific mutagenesis was carried out by the QuikChange™ method. In the QuikChange™ method, the pET30c-Bfu-GDH created in Example 1 was used as the template, and amplified by PCR with mutagenesis primers. Next, DpnI was added to the reaction mixture and incubated at 37° C. for 60 minutes to digest the template DNA, and E. coli DH5a was transformed. After culturing overnight in an LB agar culture (50 μg/mL kanamycin), the plasmid was extracted from randomly selected clones, and the sequence was analyzed to confirm that the target mutation was introduced. The resulting PCR products were NdeI and HindIII digested (37° C., 2 hours), ligated with the same restriction enzyme-digested pET30c, and E. coli BL21(DE3) was transformed. After culturing overnight In an LB agar medium (50 μg/mL kanamycin), the plasmid was extracted from randomly selected clones, and the sequence was analyzed to confirm the mutation.
# as §1
# [3] = biological target: Botryotinia fuckeliana glucose dehydrogenase (Bfu-GDH, SEQ ID NO:2) variant G53A/S514G (Botrytis cinerea, UniProt A0A384K3P1, G69A/S530G); conditions: glucose 1-40 mM; pH 6.5; partially purified enzyme
# Procedure: as §2, §1
# [4] = biological target: Botryotinia fuckeliana glucose dehydrogenase (Bfu-GDH, SEQ ID NO:2) variant N176E (Botrytis cinerea, UniProt A0A384K3P1, N192E); conditions: glucose 1-40 mM; pH 6.5; partially purified enzyme
# Procedure: as §2, §1
# [5] = biological target: Botryotinia fuckeliana glucose dehydrogenase (Bfu-GDH, SEQ ID NO:2) variant N176K (Botrytis cinerea, UniProt A0A384K3P1, N192K); conditions: glucose 1-40 mM; pH 6.5; partially purified enzyme
# Procedure: as §2, §1
# [6] = biological target: Botryotinia fuckeliana glucose dehydrogenase (Bfu-GDH, SEQ ID NO:2) variant N176R (Botrytis cinerea, UniProt A0A384K3P1, N192R); conditions: glucose 1-40 mM; pH 6.5; partially purified enzyme
# Procedure: as §2, §1
# [7] = biological target: Botryotinia fuckeliana glucose dehydrogenase (Bfu-GDH, SEQ ID NO:2) variant N176S (Botrytis cinerea, UniProt A0A384K3P1, N192S); conditions: glucose 1-40 mM; pH 6.5; partially purified enzyme
# Procedure: as §2, §1
# [8] = biological target: Botryotinia fuckeliana glucose dehydrogenase (Bfu-GDH, SEQ ID NO:2) variant S514G (Botrytis cinerea, UniProt A0A384K3P1, S530G); conditions: glucose 1-40 mM; pH 6.5; partially purified enzyme
# Procedure: as §2, §1
# [9] = biological target: Botryotinia fuckeliana glucose dehydrogenase (Bfu-GDH, SEQ ID NO:2) variant S552C (Botrytis cinerea, UniProt A0A384K3P1, S568C); conditions: glucose 1-40 mM; pH 6.5; partially purified enzyme
# Procedure: as §2, §1
# [10] = substrate: OC[C@H]1OC(O)[C@H](O)[C@@H](O)[C@@H]1O; experiment: purified protein, by the assay type; type: biochemical, Aspergillus oryzae T1; conditions: other: glucose, DCIP/PMS, pH 6.5, enzyme expressed 20° C./28 h
# Excerpt: According to a prediction from the SignalP 3.0 Server, the region from the N-terminus to the Lys residue at the position 23 was predicted to be a signal peptide. A nucleotide sequence which encodes the amino acid sequence having the initiation methionine and the downstream sequence from the Asn residue at the position 24 was designed and totally synthesized. The amino acid sequence of the protein (referred to below as “Ao-GDH”) encoded by the gene thus obtained is shown in SEQ ID NO:4. E. coli BL21(DE3) (F—, ompT, hsdSB(rB- mB-), gal(λcI 857, ind1, Sam7, nin5, LacUV5-T7gene1), dcm(DE3): from Novagen) was used as the host for recombinant production. The gene expression vector used was pET30c (kan, LacI; from Novagen), and the chaperone co-expression vector used was pGro7 (GroEL, GroES; from TaKaRa).
# (§3) (10-fold dilution at a final concentration).
# [11] = substrate: OC[C@H]1OC(O)[C@H](O)[C@@H](O)[C@@H]1O; experiment: purified protein, by the assay type; type: biochemical, Aspergillus oryzae T1; conditions: other: glucose, DCIP/PMS, pH 6.5, enzyme expressed 20° C./28 h; remark: listed apart in the source
# Excerpt: as §3
molecule,measurement,setting,value
OC[C@H]1OC(O)[C@H](O)[C@@H](O)[C@@H]1O (some centres unmarked) [glucose],Vmax,"[1]; Table 3 (unit not given), glucose",8.7
same,Vmax (apparent maximum activity),"[1]; glucose 1-40 mM, pH 6.5, partially purified enzyme",8.7 U/mg protein
same,Vmax (apparent maximum activity),[2],8.1 U/mg protein
same,Vmax (apparent maximum activity),[3],8.9 U/mg protein
same,Vmax (apparent maximum activity),[4],10.4 U/mg protein
same,Vmax (apparent maximum activity),[5],25.1 U/mg protein
same,Vmax (apparent maximum activity),[6],24.9 U/mg protein
same,Vmax (apparent maximum activity),[7],11.5 U/mg protein
same,Vmax (apparent maximum activity),[8],36.6 U/mg protein
same,Vmax (apparent maximum activity),[9],7.8 U/mg protein
"Aspergillus oryzae T1 glucose dehydrogenase (Ao-GDH, FAD-GDH), wild type, SEQ ID NO:4 (Aspergillus oryzae) (protein) MNTTTYDYIVVGGGTSGLVVANRLSENPDVSVLLLEAGASVFNNPDVTNANGYGLAFGSAIDWQYQSINQSYAGGKQQVLRAGKALGGTSTINGMAYTRAEDVQIDVWQKLGNEGWTWKDLLPYYLKSENLTAPTSSQVAAGAAYNPAVNGKEGPLKVGWSGSLASGNLSVALNRTFQAAGVPWVEDVNGGKMRGFNIYPSTLDVDLNVREDAARAYYFPYDDRKNLHLLENTTANRLFWKNGSAEEAIADGVEITSADGKVTRVHAKKEVIISAGALRSPLILELSGVGNPTILKKNNITPRVDLPTVGENLQDQFNNGMAGEGYGVLAGASTVTYPSISDVFGNETDSIVASLRSQLSDYAAATVKVSNGHMKQEDLERLYQLQFDLIVKDKVPIAEILFHPGGGNAVSSEFWGLLPFARGNIHISSNDPTAPAAINPNYFMFEWDGKSQAGIAKYIRKILRSAPLNKLIAKETKPGLSEIPATAADEKWVEWLKANYRSNFHPVGTAAMMPRSIGGVVDNRLRVYGTSNVRVVDASVLPFQVCGHLVSTLYAVAERASDLIKEDAKSA",Km,[10],44.7 mM
same,Vmax,[10],120 µmol/min/mg
"Aspergillus oryzae T1 glucose dehydrogenase (Ao-GDH, SEQ ID NO:4) variant G190C (Aspergillus oryzae; G212C) (protein) MNTTTYDYIVVGGGTSGLVVANRLSENPDVSVLLLEAGASVFNNPDVTNANGYGLAFGSAIDWQYQSINQSYAGGKQQVLRAGKALGGTSTINGMAYTRAEDVQIDVWQKLGNEGWTWKDLLPYYLKSENLTAPTSSQVAAGAAYNPAVNGKEGPLKVGWSGSLASGNLSVALNRTFQAAGVPWVEDVNCGKMRGFNIYPSTLDVDLNVREDAARAYYFPYDDRKNLHLLENTTANRLFWKNGSAEEAIADGVEITSADGKVTRVHAKKEVIISAGALRSPLILELSGVGNPTILKKNNITPRVDLPTVGENLQDQFNNGMAGEGYGVLAGASTVTYPSISDVFGNETDSIVASLRSQLSDYAAATVKVSNGHMKQEDLERLYQLQFDLIVKDKVPIAEILFHPGGGNAVSSEFWGLLPFARGNIHISSNDPTAPAAINPNYFMFEWDGKSQAGIAKYIRKILRSAPLNKLIAKETKPGLSEIPATAADEKWVEWLKANYRSNFHPVGTAAMMPRSIGGVVDNRLRVYGTSNVRVVDASVLPFQVCGHLVSTLYAVAERASDLIKEDAKSA",Km,[11],51.3 mM
same,Vmax,[11],119 µmol/min/mg
